IC50, half-life and DC50 data for 13 compounds are collected here from patent publication US20240360146A1, “BRUTON'S TYROSINE KINASE AND MUTANT DEGRADER, COMPOSITION AND APPLICATION THEREOF” (HANGZHOU HEALZEN THERAPEUTICS CO., LTD., priority 2021, published 2024).

One may read the IC50 as the concentration that inhibits the measured activity by half. As a reminder, the DC50 is the concentration giving 50% degradation.

In one series the test system is OCI-LY10 cells. Description: Inhibitory activity on OCI-LY10 cell proliferation (MTS). Particulars: Homo sapiens, 72 h. The class given is cell-based. The essentials: (§1)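 Cells seeded at 10000/well, treated with compounds from 1000 nM (4-fold, 8 points) for 72 h (OCI-LY10) or 168 h (Mino) at 37° C. MTS added for 2 h, stopped with SDS, absorbance read at 490 and 650 nm; IC50 from dose-response fit.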

Series [1] can be described thus: Stability of compounds in human liver microsome. Particulars: human liver microsomes, NADPH, 37° C., sampling 0-120 min; read-out: Human liver microsome T1/2. The class given is in vitro ADME. As to the method: Compound to be tested: the compound to be tested (1 mg) was dissolved in DMSO (10 mL) to formulate to 0.1 mg/mL.
Internal standard compound: the internal standard compound (1 mg) was dissolved in DMSO (10 mL), 10 μL was taken and diluted to 10 mL to formulate to 100 ng/mL.
NADPH solution: NADPH (2.08 mg) was dissolved in PBS (50 μL) buffer to formulate to 50 mM.
Under the condition of ice bath, 1 mg of human liver microparticles was add to PBS (1 mL) buffer, then NADPH (20 μL) was added, and incubated at 37° C. for 5 min. 10 μL of the compound to be tested was added, and then samples were taken at 0, 15, 30, 60 and 120 min respectively. 10 μL of the solution was taken with a pipette each time and added to 490 μL of the solution containing the internal standard compound. The resulting solution was vortexed and then placed on ice, and then sampling at another time point continues. All samples were centrifuged at 10,000 rpm for 10 min, and the supernatant was taken for LC/MS testing. The metabolism of the compound in liver microsomes was calculated based on the peak area.

The next series relates to Mino cells. Description: Inhibitory activity on Mino cell proliferation (MTS). The class given is cell-based. To be noted: Homo sapiens, 168 h incubation. The method in brief: as §1
A further series addresses T1, BTK (Homo sapiens, UniProt Q06187).
T1 construct: endogenous in cells; host or cells: Mino cells
The experiment in a line: BTK degradation activity test in Mino cells. To be noted: 16 h incubation, Western blot or Elisa. Format: cell-based. The essentials:
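DC50 derived by curve fitting of BTK degradation rates versus untreated control across compound concentrations. Mino cells were exposed for 16 h; BTK levels in lysates, normalised via BCA protein, measured by Western blot or ELISA.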

T1 sequence (Q06187 whole entry): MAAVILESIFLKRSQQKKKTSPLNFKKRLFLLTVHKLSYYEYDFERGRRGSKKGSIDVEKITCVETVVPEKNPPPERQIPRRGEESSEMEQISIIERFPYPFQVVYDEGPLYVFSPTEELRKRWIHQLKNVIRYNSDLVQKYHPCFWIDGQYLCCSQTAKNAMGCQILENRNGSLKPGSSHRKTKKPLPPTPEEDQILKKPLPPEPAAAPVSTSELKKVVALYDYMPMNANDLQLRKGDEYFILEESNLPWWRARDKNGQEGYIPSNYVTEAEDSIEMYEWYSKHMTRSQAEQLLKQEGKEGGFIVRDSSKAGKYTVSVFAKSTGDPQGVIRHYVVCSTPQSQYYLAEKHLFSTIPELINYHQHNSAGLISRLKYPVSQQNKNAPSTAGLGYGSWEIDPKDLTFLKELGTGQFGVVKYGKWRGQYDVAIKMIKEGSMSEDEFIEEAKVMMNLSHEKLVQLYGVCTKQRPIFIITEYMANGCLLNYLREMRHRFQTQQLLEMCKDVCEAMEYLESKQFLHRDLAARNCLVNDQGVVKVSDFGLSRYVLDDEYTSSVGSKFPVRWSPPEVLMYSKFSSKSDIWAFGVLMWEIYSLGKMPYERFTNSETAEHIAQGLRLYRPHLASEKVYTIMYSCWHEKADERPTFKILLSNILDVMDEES

With `CN1CCN([C@@H]2CCCN(c3nnc(C(N)=O)c(Nc4ccc(C5CCN(CC6CCN(c7cc8c(cc7F)C(=O)N(C7CCC(=O)NC7=O)C8=O)C6)CC5)cc4)n3)C2)C1=O` (stereo partly drawn) [Compound 126, 5-((4-(1-((1-(2-(2,6-dioxopiperidin-3-yl)-6-fluoro-1,3-dioxoisoindolin-5-yl)pyrrolidin-3-yl)methyl)piperidin-4-yl)phenyl)amino)-3-((R)-3-(3-methyl-2-oxoimidazolin-1-yl)piperidin-1-yl)-1,2,4-triazin-6-carboxamide], the IC50 with OCI-LY10 cells is below 0.06 nM; with Mino cells, 2.99 nM. Also, in series [1], the half-life at 0.97 µg/mL worked out at 55.6 min. This compound also gave a DC50 on BTK below 1 nM.

Regarding `CN1CCN([C@@H]2CCCN(c3nnc(C(N)=O)c(Nc4ccc(C5CCN(CC6CCN(c7ccc8c(c7)C(=O)N(C7CCC(=O)NC7=O)C8=O)C6)CC5)c(F)c4)n3)C2)C1=O` (stereo partly drawn) [Compound 128, 5-((4-(1-((1-(2-(2,6-dioxopiperidin-3-yl)-1,3-dioxoisoindolin-5-yl)pyrrolidin-3-yl)methyl)piperidin-4-yl)-3-fluorophenyl)amino)-3-((R)-3-(3-methyl-2-oxoimidazolin-1-yl)piperidin-1-yl)-1,2,4-triazin-6-carboxamide], the values for the concentration for half-maximal inhibition (IC50) in the series with OCI-LY10 cells and in the series with Mino cells were 0.37 nM and 1.93 nM, respectively. Also, the half-life at 0.97 µg/mL in series [1] came to 43.2 min. At BTK, this compound registered a DC50 below 1 nM.

Regarding `CN1CCN([C@@H]2CCCN(c3nnc(C(N)=O)c(Nc4ccc(N5CCN(CC6CCN(c7ccc8c(c7)C(=O)N(C7CCC(=O)NC7=O)C8=O)C6)CC5)c(Cl)c4)n3)C2)C1=O` (stereo partly drawn) [Compound 133, 5-((3-chloro-4-(4-((1-(2-(2,6-dioxopiperidin-3-yl)-1,3-dioxoisoindolin-5-yl)pyrrolidin-3-yl)methyl)piperazin-1-yl)phenyl)amino)-3-((R)-3-(3-methyl-2-oxoimidazolin-1-yl)piperidin-1-yl)-1,2,4-triazin-6-carboxamide], the half-maximal inhibitory concentration (IC50) in the series on OCI-LY10 cells is 0.43 nM; in the series with Mino cells, 3.91 nM. Besides, in series [1], the half-life at 0.97 µg/mL came to 31.7 min. In addition, at BTK, the DC50 was below 1 nM.

`NC(=O)c1nnc(N2CCC[C@@H](N3C(=O)CCC3=O)C2)nc1Nc1ccc(C2CCN(CC3CCN(c4ccc5c(c4)C(=O)N(C4CCC(=O)NC4=O)C5=O)CC3)CC2)cc1` (stereo partly drawn) [Compound 135, 5-((4-(1-((1-(2-(2,6-dioxopiperidin-3-yl)-1,3-dioxoisoindolin-5-yl)piperidin-4-yl)methyl)piperidin-4-yl)phenyl)amino)-3-((R)-3-(2,5-dioxopyrrolidin-1-yl)piperidin-1-yl)-1,2,4-triazin-6-carboxamide]: the IC50 in the series on OCI-LY10 cells turned out to be 0.11 nM; with Mino cells, 1.36 nM. In series [1], the half-life at 0.97 µg/mL came out at 25 min. The compound also registered a DC50 at BTK below 1 nM.

Consider `NC(=O)c1nnc(N2CCC[C@@H](N3C(=O)CCC3=O)C2)nc1Nc1ccc(C2CCN(CC3CCN(c4ccc5c(c4)C(=O)N(C4CCC(=O)NC4=O)C5=O)C3)CC2)cc1` (stereo partly drawn) [Compound 136, 5-((4-(1-((1-(2-(2,6-dioxopiperidin-3-yl)-1,3-dioxoisoindolin-5-yl)pyrrolidin-3-yl)methyl)piperidin-4-yl)phenyl)amino)-3-((R)-3-(2,5-dioxopyrrolidin-1-yl)piperidin-1-yl)-1,2,4-triazin-6-carboxamide], for which the IC50 amounted to 0.79 nM with OCI-LY10 cells and 1.61 nM in the series on Mino cells. Further, the half-life at 0.97 µg/mL in series [1] stood at 24 min. On BTK, this compound had a 50% degradation concentration (DC50) below 1 nM.

As to `CN1C(=O)N([C@@H]2CCCN(c3nnc(C(N)=O)c(Nc4ccc(C5CCN(CC6CCN(c7ccc8c(c7)C(=O)N(C7CCC(=O)NC7=O)C8=O)C6)CC5)cc4)n3)C2)C(=O)C12CC2` (stereo partly drawn) [Compound 137, 5-((4-(1-((1-(2-(2,6-dioxopiperidin-3-yl)-1,3-dioxoisoindolin-5-yl)pyrrolidin-3-yl)methyl)piperidin-4-yl)phenyl)amino)-3-((R)-3-(4-methyl-5,7-dioxo-4,6-diazaspiro[2.4]heptan-6-yl)piperidin-1-yl)-1,2,4-triazin-6-carboxamide], the IC50 in the series with OCI-LY10 cells came to 0.25 nM; in the series with Mino cells, 3.92 nM. In addition, the half-life at 0.97 µg/mL in series [1] was 20 min. The same compound showed a half-maximal degradation concentration (DC50) at BTK below 1 nM.

Compound `CN1CCN([C@@H]2CCCN(c3nnc(C(N)=O)c(Nc4ccc(N5CCN(CC6CCN(c7ccc(C(=O)NC8CCC(=O)NC8=O)cn7)C6)CC5)c(F)c4)n3)C2)C1=O` (stereo partly drawn) [Compound 174, 5-((4-(4-((1-(5-((2,6-dioxopiperidin-3-yl)carbamoyl)pyridin-2-yl)pyrrolidin-3-yl)methyl)piperazin-1-yl)-3-fluorophenyl)amino)-3-((R)-3-(3-methyl-2-oxoimidazolidin-1-yl)piperidin-1-yl)-1,2,4-triazin-6-carboxamide] gave a concentration for half-maximal inhibition (IC50) with OCI-LY10 cells of 1.03 nM. Further, in series [1], the half-life at 0.97 µg/mL was above 30 min. The DC50 on BTK was below 1 nM.

With `CN1CCN([C@@H]2CCCN(c3nnc(C(N)=O)c(Nc4ccc(N5CCN(CC6CCN(c7ccc(C(=O)NC8CCC(=O)NC8=O)c8[nH]cnc78)CC6)CC5)c(F)c4)n3)C2)C1=O` (stereo partly drawn) [Compound 179, 4-(4-((4-(4-((6-carbamoyl-3-((R)-3-(3-methyl-2-oxoimidazolidin-1-yl)piperidin-1-yl)-1,2,4-triazin-5-yl)amino)-2-fluorophenyl)piperazin-1-yl)methyl)piperidin-1-yl)-N-(2,6-dioxopiperidin-3-yl)-1Hbenzimidazol-7-carboxamide], in series [1], the half-life at 0.97 µg/mL was above 30 min. Besides, inhibition in the series on Mino cells was half-maximal at 1.47 nM (IC50). The compound further registered a half-maximal degradation concentration (DC50) on BTK below 1 nM.

Compound `COc1cc(N2CCC(CN3CCN(c4ccc(Nc5nc(N6CCC[C@@H](N7CCN(C)C7=O)C6)nnc5C(N)=O)cc4F)CC3)CC2)ccc1C(=O)NC1CCC(=O)NC1=O` (stereo partly drawn) [Compound 181, 5-((4-(4-((1-(4-((2,6-dioxopiperidin-3-yl)carbamoyl)-3-methoxyphenyl)piperidin-4-yl)methyl)piperazin-1-yl)-3-fluorophenyl)amino)-3-((R)-3-(3-methyl-2-oxoimidazolidin-1-yl)piperidin-1-yl)-1,2,4-triazin-6-carboxamide] had an IC50 with OCI-LY10 cells of 0.78 nM. For the same compound, in series [1], the half-life at 0.97 µg/mL is above 30 min. On BTK, the DC50 is below 1 nM.

In the series on OCI-LY10 cells, `CN1CCN([C@@H]2CCCN(c3nnc(C(N)=O)c(Nc4ccc(N5CCN(CC6CCN(c7ccc(N8CCC(=O)NC8=O)c(F)c7)CC6)CC5)c(F)c4)n3)C2)C1=O` [Compound 184, (R)-5-((4-(4-((1-(4-(2,4-dioxotetrahydropyrimidin-1(2H)-yl)-3-fluorophenyl)piperidin-4-yl)methyl)piperazin-1-yl)-3-fluorophenyl)amino)-3-(3-(3-methyl-2-oxoimidazolidin-1-yl)piperidin-1-yl)-1,2,4-triazin-6-carboxamide] registered a half-inhibitory concentration (IC50) of 1.56 nM. Besides, the half-life at 0.97 µg/mL in series [1] was above 30 min. At BTK, this compound gave a half-maximal degradation concentration (DC50) below 1 nM.

For `CN1CCN([C@@H]2CCCN(c3nnc(C(N)=O)c(Nc4ccc(N5CCN(CC6CCN(c7ccc(NC8CCC(=O)NC8=O)c(F)c7)CC6)CC5)c(F)c4)n3)C2)C1=O` (stereo partly drawn) [Compound 205, 5-((4-(4-((1-(4-((2,6-dioxopiperidin-3-yl)amino)-3-fluorophenyl)piperidin-4-yl)methyl)piperazin-1-yl)-3-fluorophenyl)amino)-3-((R)-3-(3-methyl-2-oxoimidazolidin-1-yl)piperidin-1-yl)-1,2,4-triazin-6-carboxamide], the IC50 in the series on OCI-LY10 cells was found to be 0.57 nM. For the same compound, in series [1], the half-life at 0.97 µg/mL was above 30 min. Besides, on BTK, the DC50 was below 1 nM.

For the compound `CN1CCN([C@@H]2CCCN(c3nnc(C(N)=O)c(Nc4ccc(N5CCN(CC6CCN(c7ccc8c9c([nH]c8c7)C(=O)N(C7CCC(=O)NC7=O)C9)CC6)CC5)c(F)c4)n3)C2)C1=O` (stereo partly drawn) [Compound 222, 5-((4-(4-((1-(2-(2,6-dioxopiperidin-3-yl)-3-oxo-1,2,3,4-tetrahydropyrrolo[3,4-b]indol-6-yl)piperidin-4-yl)methyl)piperazin-1-yl)-3-fluorophenyl)amino)-3-((R)-3-(3-methyl-2-oxoimidazolidin-1-yl)piperidin-1-yl)-1,2,4-triazin-6-carboxamide], the half-life at 0.97 µg/mL in series [1] is above 30 min. This compound also had an IC50 in the series with Mino cells of 4.15 nM. The compound further showed a DC50 on BTK below 1 nM.

`CN1CCN([C@@H]2CCCN(c3nnc(C(N)=O)c(Nc4ccc(N5CCN(CC6CCN(c7ccc8c(=O)n(C9CCC(=O)NC9=O)ccc8c7)CC6)CC5)c(F)c4)n3)C2)C1=O` (stereo partly drawn) [Compound 232, 5-((4-(4-((1-(2-(2,6-dioxopiperidin-3-yl)-1-oxo-1,2-dihydroisoquinolin-6-yl)piperidin-4-yl)methyl)piperazin-1-yl)-3-fluorophenyl)amino)-3-((R)-3-(3-methyl-2-oxoimidazolidin-1-yl)piperidin-1-yl)-1,2,4-triazin-6-carboxamide] showed an IC50 in the series on OCI-LY10 cells of 0.83 nM. Also, in series [1], the half-life at 0.97 µg/mL is above 30 min. The compound further yielded a DC50 at BTK below 1 nM.
